Experiments:
[1] = molecular target: T1, concanavalin A (ConA) (Canavalia ensiformis, UniProt P02866); test: Enzyme-linked lectin assay (ELLA), HRP-ConA/mannan binding inhibition; parameters: species or system Concanavalia einsiformis; details: Figure S19A, values printed over bars, axis log [IC50, M]
T1 construct: purchased
Protocol: The absorbance of the resulting mixture was determined at 405 nm.

[2] = molecular target: T2, α-mannosidase (jack beans) (Canavalia ensiformis, UniProt C0HJB3); test: Enzymatic stability / substrate behaviour towards glycosidases (gas chromatography); format: biochemical; details: control experiment
T2 construct: purchased; host or cells: jack beans
T2 sequence (C0HJB3 1-981): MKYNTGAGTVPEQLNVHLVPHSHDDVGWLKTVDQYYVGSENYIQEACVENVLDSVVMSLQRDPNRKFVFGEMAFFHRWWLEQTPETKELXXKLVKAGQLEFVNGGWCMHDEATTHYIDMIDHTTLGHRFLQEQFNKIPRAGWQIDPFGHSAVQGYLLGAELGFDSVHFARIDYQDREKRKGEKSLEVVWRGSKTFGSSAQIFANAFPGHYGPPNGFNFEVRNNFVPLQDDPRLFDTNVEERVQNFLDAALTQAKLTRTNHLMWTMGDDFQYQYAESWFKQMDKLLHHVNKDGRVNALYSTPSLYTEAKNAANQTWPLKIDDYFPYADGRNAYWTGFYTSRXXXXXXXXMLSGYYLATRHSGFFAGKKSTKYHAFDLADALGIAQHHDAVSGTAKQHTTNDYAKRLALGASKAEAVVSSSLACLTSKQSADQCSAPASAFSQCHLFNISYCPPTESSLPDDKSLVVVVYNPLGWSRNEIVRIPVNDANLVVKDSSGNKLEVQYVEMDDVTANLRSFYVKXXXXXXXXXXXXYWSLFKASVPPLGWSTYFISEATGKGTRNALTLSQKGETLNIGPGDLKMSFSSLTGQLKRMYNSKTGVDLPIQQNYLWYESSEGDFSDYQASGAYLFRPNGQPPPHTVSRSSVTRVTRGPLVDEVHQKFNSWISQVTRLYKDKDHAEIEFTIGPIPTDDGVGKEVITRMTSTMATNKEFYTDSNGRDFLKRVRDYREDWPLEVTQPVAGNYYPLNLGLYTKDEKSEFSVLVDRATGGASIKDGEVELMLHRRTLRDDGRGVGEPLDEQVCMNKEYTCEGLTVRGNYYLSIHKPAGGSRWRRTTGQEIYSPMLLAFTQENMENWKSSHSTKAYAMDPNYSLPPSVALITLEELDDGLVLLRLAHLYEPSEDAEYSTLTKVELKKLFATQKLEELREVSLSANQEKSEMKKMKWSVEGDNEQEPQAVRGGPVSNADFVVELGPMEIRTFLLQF
Description: Preliminary evidence on the feasibility of achieving disparate glycosidase inhibition selectivity with the multivalent glycoclusters 3–8 and, at the same time, retaining intrinsic lectin binding properties was achieved by conducting control experiments using both commercial glycosidases and lectins. The glycosidase panel included α- and β-glucosidases (S. cerevisiae and bovine liver), α- and β-galactosidases (green coffee beans and E. coli) and α- and β-mannosidases (jack beans and H. pomatia). Prior to kinetic determination of the corresponding inhibition constant (Ki) values (Table S1 and Fig. S9–S18, ESI ^†), the enzymatic stability was investigated by gas chromatography. […] In all the other cases the α-mannopyranoside linkages remained stable, meaning that any effect observed in the enzyme activity should be ascribed to an inhibitor and not to a substrate behavior.

[3] = molecular target: T3, recombinant human MMR (macrophage mannose receptor) (Homo sapiens, UniProt P22897); test: Modified ELLA: inhibition of rhMMR binding to yeast mannan; details: mean of three independent experiments ± SD
T3 sequence (P22897 19-1456): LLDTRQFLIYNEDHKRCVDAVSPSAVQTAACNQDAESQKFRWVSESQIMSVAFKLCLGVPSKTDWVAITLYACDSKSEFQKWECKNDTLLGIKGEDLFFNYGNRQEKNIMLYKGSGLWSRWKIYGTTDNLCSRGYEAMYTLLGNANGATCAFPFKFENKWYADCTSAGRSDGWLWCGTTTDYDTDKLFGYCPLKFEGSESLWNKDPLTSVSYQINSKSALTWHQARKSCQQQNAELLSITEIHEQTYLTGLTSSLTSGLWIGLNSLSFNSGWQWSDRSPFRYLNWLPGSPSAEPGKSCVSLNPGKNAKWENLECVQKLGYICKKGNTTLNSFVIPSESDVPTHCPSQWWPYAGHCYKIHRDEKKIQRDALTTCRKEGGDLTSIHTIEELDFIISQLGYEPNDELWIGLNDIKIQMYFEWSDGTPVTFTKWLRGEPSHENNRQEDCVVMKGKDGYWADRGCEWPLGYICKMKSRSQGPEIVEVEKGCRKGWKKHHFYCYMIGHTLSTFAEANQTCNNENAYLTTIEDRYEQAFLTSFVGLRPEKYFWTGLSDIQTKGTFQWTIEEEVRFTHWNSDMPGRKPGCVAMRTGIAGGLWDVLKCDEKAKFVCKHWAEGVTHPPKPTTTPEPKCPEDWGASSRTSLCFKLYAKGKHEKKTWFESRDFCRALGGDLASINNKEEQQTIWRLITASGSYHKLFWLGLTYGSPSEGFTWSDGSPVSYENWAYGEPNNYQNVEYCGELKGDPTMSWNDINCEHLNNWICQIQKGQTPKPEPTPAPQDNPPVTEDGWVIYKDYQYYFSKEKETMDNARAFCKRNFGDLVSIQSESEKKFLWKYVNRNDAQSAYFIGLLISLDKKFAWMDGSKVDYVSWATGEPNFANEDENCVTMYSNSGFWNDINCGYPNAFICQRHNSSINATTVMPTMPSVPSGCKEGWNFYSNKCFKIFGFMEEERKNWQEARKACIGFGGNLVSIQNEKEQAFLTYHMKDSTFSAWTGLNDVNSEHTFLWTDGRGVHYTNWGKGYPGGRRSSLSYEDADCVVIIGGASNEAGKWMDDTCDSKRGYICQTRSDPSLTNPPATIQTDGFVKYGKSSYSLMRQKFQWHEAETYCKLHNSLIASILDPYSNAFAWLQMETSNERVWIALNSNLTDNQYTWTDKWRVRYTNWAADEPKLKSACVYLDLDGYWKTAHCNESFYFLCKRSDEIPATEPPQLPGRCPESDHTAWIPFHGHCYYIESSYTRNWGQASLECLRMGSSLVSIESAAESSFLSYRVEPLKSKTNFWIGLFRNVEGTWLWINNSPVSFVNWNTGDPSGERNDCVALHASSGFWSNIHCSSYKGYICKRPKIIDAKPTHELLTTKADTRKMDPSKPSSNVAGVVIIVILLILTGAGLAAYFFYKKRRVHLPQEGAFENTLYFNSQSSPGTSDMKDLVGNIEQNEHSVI
Protocol: conjugates 3-8 the above protocol was repeated using in the last incubation step a solution of the desired HRP-ConA lectin concentration (50 µL per well) that contained inhibitors targeting the glycone, glycone/aglycone and surface sites (9-13; 500 µM; Figure S21B). Control […]
in the absence of the enzyme.
Determination of recombinant human MMR (rhMMR) binding affinities . The wells of mannan-coated microplates, prepared as above described, were filled with 100 μL of serial dilutions of rhMMR from a 10 µg·mL-1 stock solution in PBS (pH 7.3 containing 0.1 mM Ca2+ and 0.1 mM Mn2+), and incubated at 37 °C for 1 h. The plates were washed three times with PBST as described above and 100 µL of a solution of biotinylated anti -human MMR antibody (0.2 µg·mL_1, R&D Systems) in PBS was added in each well, and the plates were further incubated for 1 h at 37 °C.
The complex NeutrAvidin-biotinylated HRP was preformed separately by successively adding to Tris buffer (9.6 mL, 50 mM, pH 7.6) a solution of NeutrAvidin (100 µg·mL-1 in Tris buffer, 1.2 mL, Thermo Scientific) and a solution of biotin-conjugated HRP (25 µg·mL-1 in Tris buffer, 1.2 mL, Thermo Scientific). […] After 5 min at RT, the optical density was measured at 415 nm. […]
inhibition experiments. […] Optical density at 415 nm was determined after 5 min. The percent of inhibition was calculated as above indicated for a typical ELLA experiment.

Compound	IC50 [1]	Substrate behaviour towards GH38 jack bean Manase [2]	IC50 [3]
CO[C@H]1O[C@H](CO)[C@@H](O)[C@H](O)[C@@H]1O [MeMan, methyl α-D-mannopyranoside]	800 µM	–	–
Man9	–	substrates	3.9 ± 0.5 µM

Source: paper PMC12954580, “Multivalent glycoligands with lectin/enzyme dual specificity: self-deliverable glycosidase regulators” (Chemical Communications (Cambridge, England), 2019)
